According to US8044198B2, “Sirtuin modulating compounds” (Sirtris Pharmaceuticals, Inc., priority 2005, dated 2011):
Where two headings read alike, the source gives them in different places.

Target: T1, SIRT1 (Homo sapiens, UniProt Q96EB6)
T1 sequence (Q96EB6 1-747): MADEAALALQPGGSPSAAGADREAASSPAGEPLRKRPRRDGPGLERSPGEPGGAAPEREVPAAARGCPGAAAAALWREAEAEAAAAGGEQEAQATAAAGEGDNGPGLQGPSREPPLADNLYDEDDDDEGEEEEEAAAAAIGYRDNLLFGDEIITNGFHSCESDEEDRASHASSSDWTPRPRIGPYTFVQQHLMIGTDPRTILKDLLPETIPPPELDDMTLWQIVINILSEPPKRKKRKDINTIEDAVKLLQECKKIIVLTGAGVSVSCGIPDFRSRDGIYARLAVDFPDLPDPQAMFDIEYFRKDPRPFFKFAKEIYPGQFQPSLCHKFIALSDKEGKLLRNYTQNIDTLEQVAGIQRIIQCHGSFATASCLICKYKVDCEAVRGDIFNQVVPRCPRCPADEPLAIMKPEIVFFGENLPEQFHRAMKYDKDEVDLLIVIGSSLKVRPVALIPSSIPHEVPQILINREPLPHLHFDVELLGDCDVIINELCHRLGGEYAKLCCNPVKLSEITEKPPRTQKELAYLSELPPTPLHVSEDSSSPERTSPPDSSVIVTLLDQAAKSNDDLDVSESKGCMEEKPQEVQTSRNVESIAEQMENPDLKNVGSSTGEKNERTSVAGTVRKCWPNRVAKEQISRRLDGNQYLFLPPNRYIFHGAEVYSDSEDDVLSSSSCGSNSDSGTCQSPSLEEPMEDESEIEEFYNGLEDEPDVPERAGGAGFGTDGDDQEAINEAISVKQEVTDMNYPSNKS
Test: SIRT1 mass spectrometry (MS) based deacetylation assay; on FOLD ACT. MS: test concentration or dose not given here
Assay type: biochemical
Details: for EC50: mass spectrometry assay, read-out: ED50 MS ASSAY

[1] = fold activation of SIRT1 as determined by MS
[2] = fold activation of SIRT1, mass spectrometry assay
[3] = Sirt1 activators, fold activation as determined by MS
[4] = SIRT1 fold activation as determined by MS

| EC50 (SIRT1 activation) [µM] | FOLD ACT. MS [2] | FOLD ACT. MS [3] | EC50 (Sirt1 activators) [µM] | SMILES | other results |
| --- | --- | --- | --- | --- | --- |
| 5 to 50 | B (B (Fold Activation <250%)) | – | – | COc1ccc(S(=O)(=O)Nc2cccc(-c3nc4ccncc4s3)c2)cc1OC [Compound 289] | – |
| – | – | A (A (Fold activation >250%)) | < 5 | Cc1ccc(C(=O)Nc2ccccc2-c2nc3cc(CN4CCNCC4)cnc3s2)cc1C [Compound 591] | – |
| < 5 | – | – | – | COc1ccc(C(=O)Nc2cccc(-c3nc4cccnc4s3)c2)cc1 [Compound 216] | FOLD ACT. MS [1]: B (B (Fold Activation <250%)) |
| – | – | B (B (Fold Activation <250%)) | 5 to 50 | CS(=O)(=O)Nc1cccc(C(=O)Nc2cc(-c3nc4ncccc4o3)ccn2)c1 [Compound 566] | – |
| – | – | B (B (Fold Activation <250%)) | < 5 | CN(C)c1ccc(C(=O)Nc2ccc(-c3nc4cnccc4s3)s2)cc1 [Compound 519] | – |
| – | – | B (B (Fold Activation <250%)) | < 5 | CN(C)c1cccc(C(=O)Nc2ccc(-c3nc4cnccc4s3)s2)c1 [Compound 518] | – |
| 51 to 100 | B (B (Fold Activation <250%)) | – | – | COc1cc(C(=O)Nc2ccccc2-c2cnc3ccccc3c2)cc(OC)c1OC [Compound 415] | – |
| < 5 | B (B (Fold Activation <250%)) | – | – | COc1cc(C(=O)Nc2ccccc2-c2cn3cccnc3n2)cc(OC)c1OC [Compound 439] | – |
| 5 to 50 | B (B (Fold Activation <250%)) | – | – | COc1cc(C(=O)Nc2ccccc2-c2cccs2)cc(OC)c1OC [336 10] | – |
| 5 to 50 | B (B (Fold Activation <250%)) | – | – | COc1cc(C(=O)Nc2ccc(-c3nc4ccccc4[nH]3)cc2)cc(OC)c1OC [Compound 263] | – |
| < 5 | – | – | – | N#Cc1cccc(C(=O)Nc2ccccc2-c2nc3cc(CN4CCOCC4)cnc3s2)c1 [Compound 685] | FOLD ACT. MS [4]: B (B (Fold Activation <250%)) |
| – | – | B (B (Fold Activation <250%)) | < 5 | O=C(Nc1ccccc1-c1cn2c(n1)CCCC2)c1ccc2ccccc2n1 [Compound 547] | – |
| < 5 | – | – | – | COc1cc(C(=O)Nc2cc(C(=O)O)cc(-c3nc4ccncc4s3)c2)cc(OC)c1OC [Compound 134, 3-(thiazolo[5,4-c]pyridin-2-yl)-5-(3,4,5-trimethoxybenzamido)benzoic acid] | FOLD ACT. MS [1]: B (B (Fold Activation <250%)) |
| < 5 | B (B (Fold Activation <250%)) | – | – | COc1ccc(C(=O)Nc2ccc(-c3nc4ccccc4[nH]3)cc2)c(OC)c1 [Compound 262] | – |
| 51 to 100 | – | – | – | COc1ccc(C(=O)Nc2ccccc2-n2cccc2)cc1OC [Compound 175] | FOLD ACT. MS [1]: B (B (Fold Activation <250%)) |
| 5 to 50 | – | – | – | COc1cc(C(=O)Nc2ccccc2-c2nc3cc(CN4CCN(C)CC4)cnc3s2)cc(OC)c1OC [Compound 702] | FOLD ACT. MS [4]: A (A (Fold activation >250%)) |
| < 5 | A (A (Fold activation >250%)) | – | – | O=C(Nc1ccccc1-c1cn2c(CN3CCNCC3)csc2n1)c1ccc2ccccc2n1 [Compound 440] | – |
| 51 to 100 | – | – | – | O=C(Nc1ccccc1-c1cn2c(CN3CCNCC3)csc2n1)c1cccnc1F [Compound 744] | FOLD ACT. MS [4]: A (A (Fold activation >250%)) |
| 5 to 50 | B (B (Fold Activation <250%)) | – | – | COc1cc(C(=O)Nc2ccccc2-c2nc3ccccc3n2C)cc(OC)c1OC [Compound 313] | – |
| < 5 | – | – | – | O=C(Nc1ccccc1-c1cn2c(CN3CCNCC3)csc2n1)c1cc(F)cc(F)c1 [Compound 695] | FOLD ACT. MS [4]: A (A (Fold activation >250%)) |
| < 5 | A (A (Fold activation >250%)) | – | – | COc1ccc(C(=O)Nc2ccccc2-c2cn3cccnc3n2)cc1OC [Compound 438] | – |
| – | – | B (B (Fold Activation <250%)) | 5 to 50 | Cc1cc(C)cc(C(=O)Nc2cc(-c3nc4ncccc4o3)ccn2)c1 [Compound 468] | – |

The next lines start with the compound.

| SMILES | EC50 (SIRT1 activation) [µM] | FOLD ACT. MS [2] | FOLD ACT. MS [3] | EC50 (Sirt1 activators) [µM] | other results |
| --- | --- | --- | --- | --- | --- |
| COc1cc(C)ccc1C(=O)Nc1cccc(-c2nc3cccnc3[nH]2)c1 [Compound 182] | < 5 | – | – | – | FOLD ACT. MS [1]: A (A (Fold activation >250%)) |
| COc1cc(C(=O)Nc2cc(-c3nc4ncccc4o3)ccn2)ccc1CN1CCN(C)CC1 [Compound 637] | – | – | B (B (Fold Activation <250%)) | > 150 | – |
| O=C(Nc1ccccc1-c1cn2c(CN3CCNCC3)csc2n1)c1cnc2ccccc2c1 [Compound 645] | – | – | A (A (Fold activation >250%)) | < 5 | – |
| CN(C)c1cccc(C(=O)Nc2ccccc2-c2nc3cnccc3o2)c1 [Compound 406] | < 5 | B (B (Fold Activation <250%)) | – | – | – |
| COc1ccc(C(=O)Nc2cc(C(=O)NCCN(C)C)cc(-c3nc4ncccc4o3)c2)cc1OC [Compound 153] | 5 to 50 | – | – | – | FOLD ACT. MS [1]: B (B (Fold Activation <250%)) |
| COc1ccc(S(=O)(=O)Nc2ccccc2-c2nc3ccccc3[nH]2)cc1OC [Compound 143] | > 150 | – | – | – | – |
| COc1cc(C(=O)Nc2ccccc2-c2nc3cccnc3[nH]2)ccc1CN1CCN(C)CC1 [Compound 539] | – | – | A (A (Fold activation >250%)) | < 5 | – |
| COc1ccc(C(=O)Nc2ccccc2-c2nc3cccnc3[nH]2)cc1C(F)(F)F [Compound 528] | – | – | B (B (Fold Activation <250%)) | < 5 | – |
| O=C(Nc1ccccc1-c1cn2c(CN3CCNCC3)csc2n1)c1ccc2c(c1)OCO2 [Compound 329] | 5 to 50 | A (A (Fold activation >250%)) | – | – | – |
| O=C(Nc1cccc(-c2nc3ncccc3o2)c1)c1ccccc1N1CCOCC1 [Compound 109] | 5 to 50 | – | – | – | FOLD ACT. MS [1]: B (B (Fold Activation <250%)) |
| COc1cccc(C(=O)Nc2ccccc2-c2nc3cccnc3[nH]2)c1 [Compound 532] | – | – | B (B (Fold Activation <250%)) | < 5 | – |
| COc1ccc(C(=O)Nc2ccc(C)cc2-c2nc3ccccc3[nH]2)cc1OC [Compound 507] | – | – | A (A (Fold activation >250%)) | < 5 | – |
| COc1ccc(C(=O)Nc2cccc(-c3csc(C)n3)c2)cc1OC [Compound 80] | 5 to 50 | – | – | – | FOLD ACT. MS [1]: B (B (Fold Activation <250%)) |
| COc1ccc(C(=O)Nc2cccc(-c3nc4ncccc4s3)c2)c(OC)c1OC [Compound 198] | 5 to 50 | – | – | – | FOLD ACT. MS [1]: B (B (Fold Activation <250%)) |
| COc1ccc(-c2cc(C(=O)Nc3ccccc3-c3cn4c(CN5CCNCC5)csc4n3)[nH]n2)cc1 [Compound 735] | < 5 | – | – | – | FOLD ACT. MS [4]: A (A (Fold activation >250%)) |
| COc1ccc(OC(=O)Nc2ccccc2-c2nc3ccncc3s2)cc1 [Compound 597] | – | – | – | < 5 | – |
| COc1cc(C(=O)Nc2ccccc2-c2cn3c(n2)CCCC3)cc(OC)c1OC [Compound 546] | – | – | B (B (Fold Activation <250%)) | 5 to 50 | – |
| COc1cc(C(=O)Nc2ccccc2-c2nc3ncccc3o2)ccc1CN1CCN(C)CC1 [Compound 632] | – | – | A (A (Fold activation >250%)) | 5 to 50 | – |
| O=C(Nc1cccc(-c2nc3ncccc3o2)c1)c1ccccc1 [Compound 56] | 5 to 50 | – | – | – | FOLD ACT. MS [1]: B (B (Fold Activation <250%)) |
| COc1ccc(C(=O)Nc2ccccc2-c2cc3ccccc3[nH]2)cc1OC [Compound 254] | < 5 | B (B (Fold Activation <250%)) | – | – | – |
| COc1ccc(C(=O)Nc2cccc(-c3nnc(-c4ccccc4)o3)c2)c(OC)c1 [Compound 82] | 101 to 150 | – | – | – | – |
| COc1cc(C(=O)Nc2ccccc2-c2nc3ccncc3o2)cc(OC)c1OC [Compound 457] | 5 to 50 | B (B (Fold Activation <250%)) | – | – | – |
| Cc1cc(C(=O)Nc2ccccc2-c2cn3c(CN4CCNCC4)csc3n2)c(C)o1 [Compound 443] | 5 to 50 | A (A (Fold activation >250%)) | – | – | – |
